Where a name gives a salt, the structure may show the parent alone.

Type in all cases: biochemical
The target of one assay is T1, human LSD1(171-852) (Homo sapiens, UniProt O60341).
T1 construct: to give hLSD1(171-852) purified product; made in house; host or cells: Escherichia coli C43(DE3) pLysS
The assay can be described thus: Measurement of LSD1 inhibitory activity (time-resolved fluorescence, biotin-histone H3 mono methylated K4 peptide). The note with it: read-out: LSD1 IC50 value.

Another assay deals with T2, MAO-B (Homo sapiens, UniProt P27338).
T2 construct: purchased Sigma-Aldrich Co. LLC
T2 sequence (P27338 1-520): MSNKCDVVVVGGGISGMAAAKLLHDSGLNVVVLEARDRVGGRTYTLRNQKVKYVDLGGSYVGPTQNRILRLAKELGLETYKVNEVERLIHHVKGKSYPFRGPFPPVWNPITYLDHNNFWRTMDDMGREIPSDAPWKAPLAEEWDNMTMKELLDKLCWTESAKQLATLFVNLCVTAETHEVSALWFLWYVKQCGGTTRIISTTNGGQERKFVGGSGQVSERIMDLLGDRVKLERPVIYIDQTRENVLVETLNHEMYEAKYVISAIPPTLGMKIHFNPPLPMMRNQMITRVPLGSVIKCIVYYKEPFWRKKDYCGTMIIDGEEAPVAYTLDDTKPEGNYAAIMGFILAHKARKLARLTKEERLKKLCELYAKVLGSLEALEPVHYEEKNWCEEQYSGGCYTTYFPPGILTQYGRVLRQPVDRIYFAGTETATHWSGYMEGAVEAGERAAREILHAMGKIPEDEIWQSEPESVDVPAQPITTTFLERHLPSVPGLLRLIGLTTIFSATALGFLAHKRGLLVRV
The assay can be described thus: Measurement of MAO-B inhibitory activity (MAO-Glo Assay). In short, it runs like this:
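Percent inhibition was calculated from luciferin-based luminescence, corrected with a blank lacking enzyme and a control lacking compound. The reaction ran 60 min at room temperature after adding MAO substrate (16 µM as added). This followed a 10 min compound–enzyme preincubation in HEPES pH 7.5 buffer.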

The next assay concerns the target T3, MAO-A (Homo sapiens, UniProt P21397).
T3 construct: purchased Sigma-Aldrich Co. LLC
T3 sequence (P21397 1-527): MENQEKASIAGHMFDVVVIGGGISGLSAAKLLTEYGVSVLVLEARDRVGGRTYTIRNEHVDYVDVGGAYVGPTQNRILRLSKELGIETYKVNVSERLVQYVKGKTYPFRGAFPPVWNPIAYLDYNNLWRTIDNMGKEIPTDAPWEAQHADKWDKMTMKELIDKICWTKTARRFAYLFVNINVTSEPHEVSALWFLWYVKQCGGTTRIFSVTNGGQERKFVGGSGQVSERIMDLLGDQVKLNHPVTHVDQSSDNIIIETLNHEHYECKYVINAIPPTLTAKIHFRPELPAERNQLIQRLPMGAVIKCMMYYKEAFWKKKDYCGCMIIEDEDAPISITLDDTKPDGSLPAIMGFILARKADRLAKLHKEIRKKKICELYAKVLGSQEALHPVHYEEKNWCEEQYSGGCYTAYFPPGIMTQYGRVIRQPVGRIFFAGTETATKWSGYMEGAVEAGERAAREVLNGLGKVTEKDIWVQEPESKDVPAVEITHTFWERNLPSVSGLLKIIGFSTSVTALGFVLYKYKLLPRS
The assay can be described thus: Measurement of MAO-A inhibitory activity (MAO-Glo Assay). In short, it runs like this: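 MAO-A (400 ng) was pre-incubated with compound 10 min at room temperature in 100 mM HEPES pH 7.5, 5% glycerol, then MAO substrate (160 μM stock) added for 60 min. Luciferin detection reagent, 20 min, luminescence; % inhibition against no-compound control minus no-enzyme blank.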

On to `O=C(Nc1ccc([C@@H]2C[C@H]2NC2CCOCC2)cc1)c1ccc(-c2ccccc2)cc1` (relative stereo) [Example 61, N-{4-[trans-2-(tetrahydro-2H-pyran-4-ylamino)cyclopropyl]phenyl}biphenyl-4-carboxamide hydrochloride], for which the IC50 (in general, the concentration that gives 50% inhibition) at human LSD1(171-852) was under 0.1 µM; at MAO-B it was 3.3 µM; on MAO-A, 2.2 µM.
The corresponding values for `Cc1ccc(C(=O)Nc2ccc([C@@H]3C[C@H]3NCC3CC3)cc2)cc1` (relative stereo) [Example 68, N-(4-{trans-2-[(cyclopropylmethyl)amino]cyclopropyl}phenyl)-4-methylbenzamide hydrochloride] are under 0.1 µM, over 10 µM and over 10 µM.
The corresponding values for `O=C(Nc1ccc([C@@H]2C[C@H]2N2CCCC2)cc1)c1ccccc1` (relative stereo) [Example 30, N-{4-[trans-2-(pyrrolidin-1-yl)cyclopropyl]phenyl}benzamide hydrochloride] are 0.58 µM, over 10 µM and 1.7 µM.
For `O=C(Nc1ccc([C@@H]2C[C@H]2NCC2CC2)cc1)c1cccc(-n2cnnn2)c1` (relative stereo) [Example 100, N-(4-{trans-2-[(cyclopropylmethyl)-amino]cyclopropyl}-phenyl)-3-(1H-tetrazol-1-yl)benzamide] the same measures were under 0.1 µM, over 10 µM and over 10 µM.
As for `O=C(Nc1ccc([C@@H]2C[C@H]2NCC2CC2)cc1)c1cc(-c2ccccc2)cs1` (relative stereo) [Example 137, N-(4-{trans-2-[(cyclopropylmethyl)amino]cyclopropyl}phenyl)-4-phenylthiophene-2-carboxamide hydrochloride], the IC50 is under 0.1 µM at human LSD1(171-852), over 10 µM at MAO-B and 4.2 µM against MAO-A.
The corresponding values for `O=C(Nc1ccc([C@@H]2C[C@H]2NC2c3ccccc3-c3ccccc32)cc1)c1ccccc1` (relative stereo) [Example 21, N-{4-[trans-2-(9H-fluoren-9-ylamino)cyclo-propyl]phenyl}-benzamide] are under 0.1 µM, over 10 µM and over 10 µM.
For `Cc1c(C(=O)Nc2ccc([C@@H]3C[C@H]3NCC3CC3)cc2)cnn1-c1ccccc1` (relative stereo) [Example 121, N-(4-{trans-2-[(cyclopropylmethyl)amino]cyclopropyl}-phenyl)-5-methyl-1-phenyl-1H-pyrazole-4-carboxamide], the IC50 at human LSD1(171-852) was under 0.1 µM; against MAO-B, over 10 µM; against MAO-A it was over 10 µM.
Regarding `O=C(Nc1cccc(C(=O)Nc2ccc([C@@H]3C[C@H]3NCc3ccccc3)cc2)c1)c1ccccc1` (relative stereo) [Example 31, N-{4-[trans-2-(benzylamino)cyclopropyl]phenyl}-3-[(phenylcarbonyl)amino]benzamide], the half-inhibitory concentration (IC50) is under 0.1 µM on human LSD1(171-852), over 10 µM against MAO-B and over 10 µM against MAO-A.
On to `NS(=O)(=O)c1ccc(C(=O)Nc2ccc([C@@H]3C[C@H]3NCC3CC3)cc2)cc1` (relative stereo) [Example 88, N-(4-{trans-2-[(cyclopropylmethyl)amino]cyclopropyl}-phenyl)-4-sulfamoylbenzamide], for which the IC50 at human LSD1(171-852) is under 0.1 µM; at MAO-B, over 10 µM; against MAO-A, over 10 µM.
As to `O=C(Nc1ccc([C@@H]2C[C@H]2NC2CCS(=O)(=O)CC2)cc1)c1cccc(C(F)(F)F)c1` (relative stereo) [Example 151, N-(4-{trans-2-[(1,1-dioxidotetrahydro-2H-thiopyran-4-yl)amino]cyclopropyl}phenyl)-3-(trifluoromethyl)benzamide hydrochloride], the IC50 at human LSD1(171-852) was under 0.1 µM; against MAO-B, over 10 µM; against MAO-A, over 10 µM.
Turning to `O=C1c2ccccc2C(=O)N1c1ccc([C@@H]2C[C@H]2NCC2CC2)cc1` (relative stereo) [Example 143, 2-(4-{trans-2-[(cyclopropylmethyl)amino]cyclopropyl}phenyl)-1H -isoindole-1,3(2H)-dione hydrochloride], the IC50 is under 0.1 µM at human LSD1(171-852), over 10 µM at MAO-B and 4.5 µM against MAO-A.
The corresponding values for `CC(=O)N1CCCc2ccc(C(=O)Nc3ccc([C@@H]4C[C@H]4NCC4CC4)cc3)cc2C1` (relative stereo) [Example 134, 2-acetyl-N-(4-{trans-2-[(cyclopropyl-methyl)amino]-cyclopropyl}-phenyl)-2,3,4,5-tetrahydro-1H-2-benzazepine-8-carboxamide] are under 0.1 µM, over 10 µM and over 10 µM.
For `O=C(Nc1ccc([C@@H]2C[C@H]2N(CC2CC2)CC2CC2)cc1)c1ccc(-c2ccccc2)cc1` (relative stereo) [Example 60, N-(4-{trans-2-[bis(cyclopropylmethyl)amino]cyclopropyl}phenyl)biphenyl-4-carboxamide hydrochloride] the same measures were 1.9 µM, over 10 µM and over 10 µM.
For `O=C(Nc1ccc([C@@H]2C[C@H]2NCc2c[nH]cn2)cc1)c1ccc(-c2ccccc2)cc1` (relative stereo) [Example 66, N-(4-{trans-2-[(1H-imidazol-4-ylmethyl)amino]cyclopropyl}phenyl)biphenyl-4-carboxamide dihydrochloride] the same measures were under 0.1 µM, over 10 µM and over 10 µM.
For `O=C(Nc1ccc([C@@H]2C[C@H]2NCC2CC2)cc1)c1c[nH]c2ccccc12` (relative stereo) [Example 127, N-(4-{trans-2-[(cyclopropyl-methyl)amino]cyclo-propyl}phenyl)-1H-indole-3-carboxamide], the concentration for half-maximal inhibition (IC50) was 0.1 µM at human LSD1(171-852), over 10 µM against MAO-B and over 10 µM on MAO-A.
In the case of `O=C(Nc1ccc([C@@H]2C[C@H]2NCC2CC2)cc1)c1cccc(-c2ncccn2)c1` (relative stereo) [Example 139, N-(4-{trans-2-[(cyclopropylmethyl)amino]cyclopropyl}phenyl)-3-(pyrimidin-2-yl)benzamide hydrochloride], the IC50 on human LSD1(171-852) was under 0.1 µM; on MAO-B it was over 10 µM; on MAO-A, 8.2 µM.
For `O=C(Nc1ccc([C@@H]2C[C@H]2NCc2ccc3ccccc3c2)cc1)c1ccccc1` (relative stereo) [Example 18, N-(4-{trans-2-[(naphthalen-2-ylmethyl)amino]-cyclopropyl}-phenyl)benzamide] the same measures were under 0.1 µM, over 10 µM and 2.6 µM.
For `O=C(Nc1ccc([C@@H]2C[C@H]2NCC2CC2)cc1)c1ccc(OC(F)(F)F)cc1` (relative stereo) [Example 108, N-(4-{trans-2-[(cyclopropylmethyl)amino]cyclopropyl}phenyl)-4-(trifluoromethoxy)benzamide hydrochloride] the same measures were under 0.1 µM, over 10 µM and over 10 µM.
The corresponding values for `O=C(Nc1ccc([C@@H]2C[C@H]2NCC2CC2)cc1)c1ccc2[nH]ccc2c1` (relative stereo) [Example 114, N-(4-{trans-2-[(cyclopropylmethyl)amino]cyclopropyl}phenyl)-1H-indole-5-carboxamide trifluoroacetate] are under 0.1 µM, over 10 µM and over 10 µM.
